The test system of one series is L1210 Leukämie der Maus. As to the kind of experiment: In vivo efficacy of the platinum complexes against L1210 leukaemia of the mouse. To be noted: for opt. Dose: dose with the greatest antitumoural effect, schedule 3 x i.p./i.p.; for T/C % L1210: treatment schedule 3 x i.p./i.p., mean survival time vs control at optimal dose; for LTS (Long Term Survivor): animals alive on day 60 (cured) per group of 6, at optimal dose, 3 x i.p./i.p. Further details: opt. Dose: unit not given here. As for the experimental part:
Ascitesflüssigkeit wird unter sterilen Bedingungen DBA2 Mäusen (weiblich, 18 - 20 g) 7 Tage nach Implantation entnommen. Der Ascites wird dreimal mit PBS gewaschen, gezählt und auf eine Zellzahl von 10⁶ in 0.2 ml PBS eingestellt. 10⁶ Zellen, suspendiert in 0.2 ml PBS, werden anschlie-ßend DBF1 Mäusen (weiblich, 18 - 20 g) intraperitoneal injiziert. 6 Tiere pro Gruppe werden für jede Substanz konzentration bzw. als Kontrolle eingesetzt.
• a) Die Tiere werden am Tag 1 und 5 nach Injektion der Testsubstanz gewogen.
Die Dosis, die den größten antitumoralen Effekt (optimale Dosierung) sowie jeweils eine Dosisstufe oberhalb und unterhalb dieser Dosis wurden angegeben. Tiere, die am Tag 60 des Experimentes noch leben, werden als geheilt zusätzlich getrennt aufgeführt.

The subject of a further series is L1210-Leukämiezellen. Briefly: Colony formation of L1210 leukaemia cells in soft agar. The class given is cell-based, Maus. The following applies: colony number vs untreated control, 7 days at 37° C; 1 h incubation or continuous exposure not specified. From the text: Die Bestimmung der zytostatischen Wirksamkeit der hier beschriebenen Verbindungen erfolgte an L1210-Leukämiezellen der Maus. Im einzelnen wurden folgende Testsysteme verwendet:
Diese Methode dient zum Nachweis eines Einflusses der Testsubstanzen auf das Wachstumsverhalten der Zellen über mehrere Generationen (bei einer Zellzykluszeit von 10 - 12 Stunden werden in der Testzeit von 7 Tagen etwa 14 aufeinanderfolgende Generationen beobachtet). Zytostatisch wirksame Substanzen bewirken in diesem Test eine Reduktion der zu beobachtenden Koloniezahl gegenüber einer unbehandelten Kontrolle. Im einzelnen wird der Test wie folgt durchgeführt: Leukämiezellen werden mit unterschiedlichen Konzentrationen von Testsubstanz 1 Stunde bei 37° C inkubiert.
Anschließend werden die Zellen zweimal mit McCoy5A-Medium gewaschen und schließlich in Petrischalen nach Zusatz von 0.3 % Agar ausgegossen (500 Zellen/Platte). Kontrollen werden lediglich mit frischem Medium inkubiert. Anstelle der einstündigen Inkubation werden in manchen Fällen unterschiedliche Konzentrationen und Testsubstanz der oberen Agarschicht zugemischt, um so eine kontinuierliche Exposition der Zellen über die gesamte Inkubationszeit zu erreichen. Nach Erstarren des Agars werden die Platten im Brutschrank 7 Tage bei 37° C inkubiert ( 5 Vol-% CO₂, 95 % relative Luftfeuch tigkeit). Anschließend wird die Anzahl der entstandenen Kolonien mit einem Durchmesser von mehr als 60 µ gezählt. Die Ergebnisse werden angegeben als Koloniezahl in behandelten Agarplatten, in Prozent der unbehandelten Kontrolle. Aus der so erhalten Dosiswirkungskurve wird die IC₅₀ als Maß für die Wirksamkeit der Substanz ermittelt.

A further series deals with NMRI-Mäusen. As to the kind of experiment: Acute toxicity in mice (LD50, Litchfield-Wilcoxon). To be noted: 3 x i.p.; survivors counted day 14 after last injection. The class given is in vivo, Maus. As to the method:
Zur Ermittlung der akuten Toxizität werden NMRI-Mäusen am Tag 0 unterschiedliche Dosen der Testsubstanz gelöst in 0.5 ml 5 %iger Glucose-Lösung, intraperitoneal injiziert. Kontrollgruppen erhalten lediglich 0.5 ml 5 %ige Glucose-Lösung. Pro Konzentration der Testsubstanz werden 5 Mäuse verwendet. Am Tag 14 nach der letzten Injektion wird die Zahl der überlebenden Mäuse ermittelt und daraus nach der Lichtfield Wilcoxon Methode die LD5, LD50 und LD95 ermittelt.

Structures are written as SMILES.

In the case of `N.N.[Cl][Pt][Cl]` [Cisplatin, reference compound], in the series with L1210 Leukämie der Maus, the “opt. Dose” value is recorded as 4 and the “T/C % L1210” value is 157%. Moreover, in the series on L1210-Leukämiezellen, the IC₅₀ amounted to 0.04 µg/mL.
`CCC(CN)(CN)COC.O=C1[O][Pt][O]C(=O)C12CC2` [Verbindung 1, 1,3-Diamino-2-ethyl-2-methoxymethyl-propan-N,N′-platin(II)-O,O′-cyclopropan-1,1-dicarboxylat] returned an LD₅₀ with NMRI-Mäusen of 90 to 120 mg/kg. Besides, in the series on L1210 Leukämie der Maus, the “LTS (Long Term Survivor)” value was 6/6, the “opt. Dose” value is 50 and the “T/C % L1210” value was found to be 450%. This compound showed an IC₅₀ in the series on L1210-Leukämiezellen of 5.0 µg/mL.
`COCC(C)(CN)CN.O=C([O-])C1(C(=O)[O-])CC1.[Pt+2]` [Verbindung 2, 1,3-Diamino-2-methoxymethyl-2-methyl-propan-N,N′-platin(II)-O,O′-cyclopropan-1,1-dicarboxylat] registered an IC₅₀ in the series with L1210-Leukämiezellen of 4.2 µg/mL.
Compound `CCC(CN)(CN)COC.COC1C(=O)[O][Pt][O]C1=O` [Verbindung 9, 1,3-Diamino-2-ethyl-2-methoxymethyl-propan-N,N′-platin(II)-O,O′-2-methoxymalonat] yielded an LD₅₀ in the series with NMRI-Mäusen of 60 mg/kg. For the same compound, in the series on L1210 Leukämie der Maus, the “LTS (Long Term Survivor)” value is listed as 3/6, the “opt. Dose” value is listed as 16 and the “T/C % L1210” value worked out at 306%. The compound also gave an IC₅₀ with L1210-Leukämiezellen of 2.35 µg/mL.
As to `CCC(CN)(CN)COC.CCC1(C)[O][Pt][O]C1=O` [Verbindung 22, 1,3-Diamino-2-ethyl-2-methoxymethyl-propan-N,N′-platin(II)-O,O′-(2-hydroxy-2-methyl)-butyrat], the LD₅₀ with NMRI-Mäusen lay in the range of 90 to 180 mg/kg. The compound also gave an IC₅₀ with L1210-Leukämiezellen of 2.9 µg/mL.
With `COCC(C)(CN)CN.O=C1C[O][Pt][O]1` [Verbindung 17, 1,3-Diamino-2-methoxymethyl-2-methyl-propan-N,N′-platin(II)-O,O′-2-hydroxy-acetat], in the series with L1210 Leukämie der Maus, the “LTS (Long Term Survivor)” value was 1/6, the “opt. Dose” value was determined as 9.5 and the “T/C % L1210” value is 225%. The same compound displayed an IC₅₀ with L1210-Leukämiezellen of 1.8 µg/mL.
For `CCC(CN)(CN)COC.O=C1C[O][Pt][O]1` [Verbindung 16, 1,3-Diamino-2-ethyl-2-methoxymethyl-propan-N,N′-platin(II)-O,O′-2-hydroxy-acetat], in the series on L1210 Leukämie der Maus, the “LTS (Long Term Survivor)” value is 4/6, the “opt. Dose” value amounted to 15.8 and the “T/C % L1210” value amounted to 361%. The compound also yielded an IC₅₀ with L1210-Leukämiezellen of 1.2 µg/mL.

The record behind these values is patent EP0367974A1, “Cis-complexes with a 1,3-diaminopropane derivative as a ligand, methods for their preparation and pharmaceutical agents containing such complexes” (BEHRINGWERKE Aktiengesellschaft, priority 1988, dated 1990).
